# Columns and labels:
# [1] = molecular target: T1, Diacylglycerol O-acyltransferase 1 (Bos taurus) (UniProt Q8MK44); details: at 100 µM
# T1 sequence (whole entry): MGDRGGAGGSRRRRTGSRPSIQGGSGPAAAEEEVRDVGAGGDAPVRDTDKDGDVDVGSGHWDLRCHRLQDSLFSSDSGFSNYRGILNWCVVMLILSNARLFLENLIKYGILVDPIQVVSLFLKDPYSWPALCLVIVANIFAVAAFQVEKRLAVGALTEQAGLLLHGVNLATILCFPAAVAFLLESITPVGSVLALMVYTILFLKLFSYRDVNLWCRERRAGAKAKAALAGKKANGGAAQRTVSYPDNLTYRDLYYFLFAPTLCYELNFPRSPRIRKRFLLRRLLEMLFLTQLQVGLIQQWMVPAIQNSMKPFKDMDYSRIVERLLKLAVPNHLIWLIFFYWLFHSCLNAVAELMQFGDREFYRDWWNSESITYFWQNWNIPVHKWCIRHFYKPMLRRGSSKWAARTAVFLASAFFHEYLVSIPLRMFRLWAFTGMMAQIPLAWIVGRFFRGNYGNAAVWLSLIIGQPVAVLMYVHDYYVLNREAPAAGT
# Description: Inhibition of ARAT in bovine RPE microsomes at 100 uM using retinol substrate in presence of dilauroyl-phosphatidyl choline incubated for 5 mins by HPLC analysis relative to control
# [2] = species: Homo sapiens
# Description: Inhibition of transglutaminase in human keratinocytes in presence of 10 uM retinal relative to retinal alone
# [3] = molecular target: T2, Lecithin retinol acyltransferase (Bos taurus) (UniProt Q9BGL2); details: at 100 µM
# T2 sequence (whole entry): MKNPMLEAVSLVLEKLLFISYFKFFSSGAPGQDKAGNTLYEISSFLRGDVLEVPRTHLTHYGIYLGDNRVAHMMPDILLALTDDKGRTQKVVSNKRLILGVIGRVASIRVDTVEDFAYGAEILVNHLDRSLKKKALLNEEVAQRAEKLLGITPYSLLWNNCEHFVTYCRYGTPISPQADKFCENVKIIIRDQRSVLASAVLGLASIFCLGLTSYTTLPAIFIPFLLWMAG
# Description: Inhibition of LRAT in bovine RPE microsomes at 100 uM using retinol substrate in presence of Palmitoyl-CoA incubated for 5 mins by HPLC analysis relative to control
# [4] = molecular target: T3, Cellular retinoic acid-binding protein 2 (Homo sapiens) (UniProt P29373); test: Inhibition of radioactive all-trans retinoic acid binding to CRABP2 (unknown origin) expressed in Escherichia coli BLR(DE3)pLys incubated for 1 hr by scintillation counting assay; details: concentration not given here
# T3 sequence (whole entry): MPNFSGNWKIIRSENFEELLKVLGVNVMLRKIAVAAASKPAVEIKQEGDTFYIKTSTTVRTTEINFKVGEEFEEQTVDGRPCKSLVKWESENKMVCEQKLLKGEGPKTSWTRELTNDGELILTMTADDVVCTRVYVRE
# [5] = species: Homo sapiens; test: Inhibition of transglutaminase in human keratinocytes assessed as mean transglutaminase activity level at 5.0 10^-8M in presence of 10 uM retinal relative to retinal alone; format: cell-based; parameters: scale not given: the % may be the effect or the level left
# [6] = species: Homo sapiens; test: Inhibition of transglutaminase in human keratinocytes assessed as mean transglutaminase activity level at 1.0 10^-3M in presence of 10 uM retinal relative to retinal alone; format: cell-based; parameters: scale not given: the % may be the effect or the level left
# [7] = species: Homo sapiens; test: Inhibition of transglutaminase in human keratinocytes assessed as mean transglutaminase activity level at 1.23 10^-5M in presence of 10 uM retinal relative to retinal alone; format: cell-based; parameters: scale not given: the % may be the effect or the level left
# [8] = species: Homo sapiens; test: Inhibition of transglutaminase in human keratinocytes assessed as mean transglutaminase activity level at 1.1 10^-4M in presence of 10 uM retinal relative to retinal alone; format: cell-based; parameters: scale not given: the % may be the effect or the level left
# [9] = species: Homo sapiens; test: Inhibition of transglutaminase in human keratinocytes assessed as mean transglutaminase activity level at 1.65 10^-7M in presence of 10 uM retinal relative to retinal alone; format: cell-based; parameters: scale not given: the % may be the effect or the level left
# [10] = species: Homo sapiens; test: Inhibition of transglutaminase in human keratinocytes assessed as mean transglutaminase activity level at 3.73 10^-4M in presence of 10 uM retinal relative to retinal alone; format: cell-based; parameters: scale not given: the % may be the effect or the level left
# [11] = species: Homo sapiens; test: Inhibition of transglutaminase in human keratinocytes assessed as mean transglutaminase activity level at 3.29 10^-7M in presence of 10 uM retinal relative to retinal alone; format: cell-based; parameters: scale not given: the % may be the effect or the level left
# [12] = species: Homo sapiens; test: Inhibition of transglutaminase in human keratinocytes assessed as mean transglutaminase activity level at 4.1 10^-5M in presence of 10 uM retinal relative to retinal alone; format: cell-based; parameters: scale not given: the % may be the effect or the level left
# [13] = species: Homo sapiens; test: Inhibition of transglutaminase in human keratinocytes assessed as mean transglutaminase activity level at 8.2 10^-6M in presence of 10 uM retinal relative to retinal alone; format: cell-based; parameters: scale not given: the % may be the effect or the level left
# [14] = molecular target: T2, Lecithin retinol acyltransferase (Bos taurus); test: Inhibition of LRAT in bovine RPE microsomes at 10 uM using retinol substrate in presence of Palmitoyl-CoA incubated for 5 mins by HPLC analysis relative to control
# [15] = species: Homo sapiens; test: Inhibition of transglutaminase in human keratinocytes assessed as mean transglutaminase activity level at 3 10^-5M in presence of 10 uM retinal relative to retinal alone; format: cell-based; parameters: scale not given: the % may be the effect or the level left
# [16] = species: Homo sapiens; test: Inhibition of transglutaminase in human keratinocytes assessed as mean transglutaminase activity level at 1.1 10^-6M in presence of 10 uM retinal relative to retinal alone; format: cell-based; parameters: scale not given: the % may be the effect or the level left
# [17] = species: Homo sapiens; test: Inhibition of transglutaminase in human keratinocytes assessed as mean transglutaminase activity level at 3.3 10^-6M in presence of 10 uM retinal relative to retinal alone; format: cell-based; parameters: scale not given: the % may be the effect or the level left
# [18] = species: Homo sapiens; test: Inhibition of transglutaminase in human keratinocytes assessed as mean transglutaminase activity level at 8.2 10^-8M in presence of 10 uM retinal relative to retinal alone; format: cell-based; parameters: scale not given: the % may be the effect or the level left
# [19] = species: Homo sapiens; test: Inhibition of transglutaminase in human keratinocytes assessed as mean transglutaminase activity level at 1.23 10^-7M in presence of 10 uM retinal relative to retinal alone; format: cell-based; parameters: scale not given: the % may be the effect or the level left
# [20] = species: Homo sapiens; test: Inhibition of transglutaminase in human keratinocytes assessed as mean transglutaminase activity level at 1 10^-5M in presence of 10 uM retinal relative to retinal alone; format: cell-based; parameters: scale not given: the % may be the effect or the level left
# [21] = species: Homo sapiens; test: Inhibition of transglutaminase in human keratinocytes assessed as mean transglutaminase activity level at 3.73 10^-7M in presence of 10 uM retinal relative to retinal alone; format: cell-based; parameters: scale not given: the % may be the effect or the level left
# [22] = species: Homo sapiens; test: Inhibition of transglutaminase in human keratinocytes assessed as mean transglutaminase activity level at 4.1 10^-8M in presence of 10 uM retinal relative to retinal alone; format: cell-based; parameters: scale not given: the % may be the effect or the level left
# [23] = species: Homo sapiens; test: Inhibition of transglutaminase in human keratinocytes assessed as mean transglutaminase activity level at 1.65 10^-9M in presence of 10 uM retinal relative to retinal alone; format: cell-based; parameters: scale not given: the % may be the effect or the level left
# [24] = species: Rattus norvegicus; test: Inhibition of retinal reductase in Sprague-Dawley rat liver microsomes at 100 uM using all-trans retinaldehyde and NADPH by HPLC analysis relative to control
# [25] = species: Homo sapiens; test: Inhibition of transglutaminase in human keratinocytes assessed as mean transglutaminase activity level at 3.29 10^-9M in presence of 10 uM retinal relative to retinal alone; format: cell-based; parameters: scale not given: the % may be the effect or the level left
# [26] = molecular target: T1, Diacylglycerol O-acyltransferase 1 (Bos taurus); test: Inhibition of ARAT in bovine RPE microsomes at 10 uM using retinol substrate in presence of dilauroyl-phosphatidyl choline incubated for 5 mins by HPLC analysis relative to control
smiles,measurement,setting,value
C/C=C/C(=O)C1=C(C)CC(C)(C)CC1,inhibition,[1],80%
CCCCCCCC/C=C\CCCCCCCC1=NCCN1CCO,IC20,[2],5.65 ×10⁻⁶ M
CCCCC/C=C\C/C=C\CCCCCCCC(=O)NCCCN(C)C,inhibition,[1],69%
same,inhibition,[3],75%
CC(C)(C)C(=O)C(Oc1ccc(Cl)cc1)n1ccnc1 (stereo not drawn),IC20,[2],2.45 ×10⁻⁷ M
CC(=O)C1(C)C2CC3C(C2)C31C (stereo not drawn),inhibition,[1],23%
same,inhibition,[3],12%
CCCCCCCC/C=C/CCCCCCCC(=O)O,inhibition,[4],> 50%
same,Activity,[5],50.5%
same,IC20,[2],5.88 ×10⁻⁵ M
same,Activity,[6],12.8%
same,Activity,[7],80.9%
same,Activity,[8],8%
same,Activity,[9],58%
same,Activity,[10],13.8%
same,Activity,[11],69%
same,Activity,[12],58.2%
CC(C)(O)CCCC1=CCC(C=O)CC1 (stereo not drawn),IC20,[2],4 ×10⁻⁵ M
O=C1C[C@@H](c2ccc(O)cc2)Oc2cc(O)cc(O)c21,inhibition,[3],14%
Clc1ccc(COC(Cn2ccnc2)c2ccc(Cl)cc2Cl)c(Cl)c1 (stereo not drawn),IC20,[2],8.42 ×10⁻⁸ M
CCCCCCCCCCCCCC(=O)O,Activity,[13],74.2%
same,IC20,[2],1.05 ×10⁻⁵ M
same,Activity,[6],-2%
same,Activity,[8],-8%
same,Activity,[9],88.9%
same,Activity,[10],-6%
same,Activity,[11],101%
same,Activity,[12],75.1%
CC(=O)/C=C/C=C(\C)CCC=C(C)C,inhibition,[1],12%
CCCCC/C=C\C/C=C\CCCCCCCC(=O)NCCO,inhibition,[14],20%
same,IC20,[2],1.48 ×10⁻⁵ M
CCCCC/C=C\C/C=C\CCCCCCCC(=O)NC(C)c1ccccc1 (stereo not drawn),inhibition,[1],64%
same,inhibition,[3],43%
C[C@H]1[C@H](C)CC[C@]2(C(=O)O)CC[C@]3(C)C(=CC[C@@H]4[C@@]5(C)CC[C@H](O)C(C)(C)[C@@H]5CC[C@]43C)[C@H]12,IC20,[2],5.94 ×10⁻⁷ M
CC(=O)N1CCN(c2ccc(OCC3COC(Cn4ccnc4)(c4ccc(Cl)cc4Cl)O3)cc2)CC1 (stereo not drawn),IC20,[2],5.52 ×10⁻⁸ M
CC(/C=C/C=C(\C)C(=O)O)=C\C=C\C=C(C)\C=C\C=C(/C)C(=O)O,inhibition,[14],0%
same,IC20,[2],2.52 ×10⁻⁵ M
CCCCCCCCCCCC(=O)NCCC[N+](C)(C)CC(=O)[O-],inhibition,[1],25%
COc1cc(NS(C)(=O)=O)ccc1Nc1c2ccccc2nc2ccccc12,Activity,[15],-10%
same,Activity,[16],84%
same,Activity,[17],64%
same,Activity,[18],131%
same,Activity,[19],65%
same,Activity,[20],1.8%
same,Activity,[21],109%
same,IC20,[2],3.3 ×10⁻⁶ M
same,Activity,[22],110%
same,Activity,[23],113%
same,inhibition,[24],22%
same,Activity,[25],92%
C/C=C/C(=O)C1=C(C)CCCC1(C)C,inhibition,[26],45%
O=c1c2cccc3cccc(c32)c2nc3ccccc3n12,IC20,[2],4.69 ×10⁻⁷ M
CC1=CC(C)C(CO)C(C)C1 (stereo not drawn),inhibition,[1],18%
same,inhibition,[3],16%
C=CCCC(=O)/C=C/C1C(C)=CCCC1(C)C (stereo not drawn),inhibition,[14],17%
C/C=C/C(=O)C1=C(C)C=CCC1(C)C,inhibition,[14],29%
same,inhibition,[1],70%
same,inhibition,[3],79%
